What was measured:
MMP1 [1] = assay: MMP1 secretion (ELISA) in two-dimensionally cultured, UVB-irradiated fibroblasts treated with MMP inhibitors; format: cell-based, human; details: for decrease of MMP1 in 2D cells in comparison with the 3D cell cluster: 2D UVB fibroblasts versus 3D cell cluster; for secreted amount of MMP1 relative to the control group: 2D fibroblasts, UVB 20 mJ/cm^2, 2 days, FIG. 17
Description: As a control group for the 3D fibroblast cluster and for the comparison of the inhibitory effect of MMP inhibitors using the two-dimensionally cultured fibroblasts, fibroblasts irradiated with ultraviolet B (UVB) were used. In detail, fibroblasts that were suspended in high-concentration glucose DMEM were seeded onto each well of a tissue culture treated 6-well plate at a concentration of 2.5×10^5 cells/cm^2, and then, cultured in a stationary incubator at a temperature of 37° C. for 1 day. Next, a washing process was performed thereon three times by using PBS, a serum-free MEM medium was added thereto, and the fibroblasts were cultured in a stationary incubator at a temperature of 37° C. for 1 hour. After a washing process was performed thereon three times by using PBS, to induce overexpression of MMP1, UVB (20 mJ/cm^2) was irradiated thereto. Following UV irradiation, the resulting fibroblasts were inoculated with various concentrations of retinoic acid (2, 10, 40 mM), abietic acid (20, 100, 400 mM), and TGF-b1 (1, 5, 20, ng/ml) that were diluted in a fibroblast growth medium (FGM, Lonza Company). The inoculated fibroblasts were then additionally cultured in a stationary incubator at a temperature of 37° C. for 2 days. The culture broth was recovered therefrom, and was subjected to measurement of secretion of MMP1. Through the measurement, the culture broth was quantified by using the ELISA kit (R&D Company), wherein a method of using the kit was proceeded according to the supplier's protocol.

MMP1 [2] = assay: MMP1 secretion (ELISA) in 3D fibroblast cluster treated with MMP inhibitors; format: cell-based, human; details: retinoic acid 10 mM, abietic acid 100 mM, TGF-b1 5 ng/ml, cultured 2 and 4 days, FIG. 16
Description: To prepare an in vitro 3D artificial dermis model, fibroblasts were first cultured. In detail, human dermal fibroblasts were cultured in high glucose Dulbecco's modified Eagle's medium (DMEM, Welgene, Daegu, South Korea) by using a tissue culture flask under conditions of 37° C., 5% CO2, and 95% O2 atmosphere. Human dermal fibroblasts of 5 passages were used for all experiments.
The fibroblasts were seeded onto the culture container, thereby preparing a 3D fibroblast cluster. In detail, fibroblasts were seeded onto the 96-well NTCP containing fibroblast growth medium (FGM, Lonza) at a concentration of 1.25×10^5 cells/cm^2 per well, and cultured at a temperature of 37° C. The fibroblasts were cultured in a 2D manner on a surface of the culture container, and separated from the surface. Such separated or delocalized 2D fibroblast cluster was then continuously cultured while floating in the culture container, and within 24 hours, a 3D fibroblast cluster was formed spontaneously. The formed 3D fibroblast cluster was collected on the 1st day (Day 1), 3rd day (Day 3), and 5th day (Day 5) of the culture. […] Hereinafter, the 3D fibroblast cluster was represented by ‘3DCM’.
In detail, the 3D fibroblast cluster of the culture at Day 1 prepared according to Example 2(1) was inoculated with retinoic acid (10 mM), abietic acid (100 mM), transforming growth factor-b1 (TGF-b1) (5 ng/ml) that were diluted in a […] (FGM, Lonza Company). The inoculated 3D fibroblast cluster was then cultured in a stationary incubator at a temperature of 37° C. for 2 and 4 days, separately. The culture broth was recovered therefrom, and was subjected to measurement of secretion of MMP1. Through the measurement, the culture broth was quantified by using the ELISA kit (R&D Company), wherein a method of using the kit was proceeded according to the supplier's protocol.

[3] = retinoic acid 2, 10, TGF-b1 1, 5, 20 ng/ml

## CC1=C(/C=C/C(C)=C/C=C/C(C)=C/C(=O)O)C(C)(C)CCC1 [retinoic acid]
MMP1 [1]
  decrease of MMP1 in 2D cells in comparison with the 3D cell cluster: about 2.7 times
MMP1 [1]; [3]
  secreted amount of MMP1 relative to the control group: about 30%
MMP1 [2]
  secretion levels of MMP1 relative to the control group: about 80%

## CC(C)C1=CC2=CC[C@@H]3[C@](C)(CCC[C@@]3(C)C(=O)O)[C@H]2CC1 [abietic acid]
MMP1 [1]; abietic acid 20 mM
  secreted amount of MMP1 relative to the control group: approximately reduced to half
MMP1 [1]; abietic acid at least 100 mM
  secreted amount of MMP1 relative to the control group: about 2%
MMP1 [2]
  secretion levels of MMP1 relative to the control group: ~81%

## transforming growth factor-b1 [TGF-b1]
MMP1 [1]
  decrease of MMP1 in 2D cells in comparison with the 3D cell cluster: 1.7 to 2.4 times
MMP1 [1]; [3]
  secreted amount of MMP1 relative to the control group: 25-35%
MMP1 [2]
  secretion levels of MMP1 relative to the control group: about 60%

— patent US10725043B2, “Three-dimensional fibroblast aggregate and in vitro 3D skin dermis model comprising same” (S-BIOMEDICS, priority 2015, dated 2020)
